Crystalline form conversion data for 2 substances are collected here from US11234961B2, “Pamoate salt of monoamine anti-Parkinson's agents, method of preparation and use thereof” (priority 2017, dated 2022).

Read-outs that look alike come from different tables or passages of the source.

Turning to Pramipexole Pamoate [Example 8], the crystalline form conversion result (upon standing at room temperature after 7 days) was “started converting into the crystalline form depicted in Example 7”.
With Pramipexole Pamoate [Example 9], the crystalline form conversion entry (placed in the dry box at room temperature) is on record as “converting into amorphous state”.
